Data from patent publication US20180028553A1, “USE OF STING AGONIST AS CANCER TREATMENT” (The University of Chicago, priority 2013, published 2018).
Entries after “also recorded” stand apart in the source; their conditions may differ.

Tests used:
IFN-β = test: Murine IFN-β ELISA, macrophages and BM-DCs; type: cell-based, mouse
Protocol: Murine IFN-β ELISA. […] Conditioned media were collected after 4 hours. IFN-β concentration was assessed using VeriKine™ Mouse Interferon Beta ELISA Kit (PBL interferon source).

[1] = tested on: innate cytokines in BM-DCs; test: Quantitative RT-PCR analysis of cytokines in BM-DCs; type: cell-based, mouse; conditions: DMXAA 25 μg/ml, 4 h
Protocol: Quantitative RT-PCR analysis of cytokines. […] Total RNA was isolated using the RNeasy® kit (Qiagen) and incubated with Deoxyribonuclease I, Amplification Grade (Invitrogen). cDNA was synthesized using High Capacity cDNA Reverse Transcription Kit (Applied Biosystem) and expression of cytokines was measured by real-time qRT-PCR using specific primers/probes for mouse INF-β, TNF-α, IL-6 and IL-12p40, using a 7300 Real Time PCR system (Applied Biosystem). The results are expressed as 2^−ΔCt using 18s as endogenous control.

[2] = tested on: BM-DCs (CD40, CD86, MHC class II); test: Expression of activation markers on BM-DCs by flow cytometry; type: cell-based, mouse; conditions: WT versus STING-deficient BM-DCs; DMXAA 25 μg/ml or LPS 100 ng/ml
Protocol: Expression of activation markers by flow cytometry. […] Stained cells were analyzed using LSR II cytometer with FACSDiva software (BD) or FACSVerse with FACSuite software. Data analysis was conducted with FlowJo software (Tree Star).

B16.SIY tumors = type: in vivo
Protocol: As a comparison, the cyclic dinucleotide compounds from Aduro will be injected into tumors in parallel sets of mice. Tumor volumes are estimated twice a week using the formula described above.
(§1) In vivo tumor experiments. 10^6 of B16-SIY tumor cells, 5×10^4 B16.F10 tumor cells, 10^5 4T1 and CT26, or 10^6 other tumor cells were injected s.c. in 100 μl DPBS or HBSS on the right flank of mice. Following tumor implantation, mice were randomized into treatment groups. […] Measurements of tumors were performed twice per week using calipers, and the tumor volume was calculated with the formula: V=(length×width^2)/2. In some experiments, tumor-free survivors were rechallenged with tumor cells on the opposite flank several weeks after the injection of the primary tumor. Naïve mice were used as controls. For the contralateral experiments, mice were implanted on both flanks and only one tumor was treated. For the B16 melanoma lung metastasis experiments, mice were implanted on the flank with 5×10^4 cells B16.F10 on day 0, and then injected intravenously with 1×10^5 cells on day 7. Lungs were harvested on day 28. Administration of compounds, measurements of tumors and counting of lung tumors were performed in a blinded fashion.

SIY antigen = test: IFN-γ ELISPOT and SIY-pentamer staining in B16.SIY tumor-bearing mice; type: in vivo, mouse
Protocol: The mouse IFN-γ enzyme-linked Immunospot assay (ELISPOT) from BD is used according to the manufacturer's protocol. In brief, splenocytes are plated at 10^6 cells/well and stimulated overnight with SIY peptide (160 nM), PMA (50 ng/ml) and ionomycin (0.5 μM) as positive control, or medium (DMEM supplemented with 10% heat-inactivated FCS, penicillin, streptomycin, L-arginine, L-glutamine, folic acid, and L-asparagine) as negative control. IFN-γ spots are detected using biotinylated antibody and avidin-peroxidase and developed using AEC substrate (BD Bioscience). Plates are read in an Immunospot Series 3 Analyzer and analyzed with ImmunoSpot software (Cellular Technology Ltd).
5×10^6 cells/sample are labeled with PE-MHC class I tetramers (Beckman Coulter or Proimmune) consisting of murine H-2Kb complexed to either […] (SIY) peptide or […] (OVA) peptide as a negative control, anti-TCRβ-AF700 (clone H57-597), antiCD8-PO (clone 5H10), anti-CD4-PB (clone RM4-5), anti CD62L-PE_Cy7 (clone MEL-14), anti-CD44-APC (clone IM7) and the Fixable Viability dye eFluor780 (eBioScience). FACS analysis is performed using FACSCanto or LSR II cytometers with FACSDiva software (BD). Data analysis is conducted with FlowJo software (Tree Star).
IFN-γ ELISPOT and SIY-pentamer staining. […] For the ELISPOTs, 10^6 splenocytes were plated per well and stimulated overnight with SIY peptide (160 nM) or AH1 (1 μM) peptide, with PMA (50 ng/ml) plus ionomycin (0.5 μM) as a positive control, or medium as negative control. Spots were developed using the BD mouse IFN-γ kit according to the manufacturer's instructions and the number of spots was measured using an Immunospot Series 3 Analyzer and analyzed using ImmunoSpot software (Cellular Technology Ltd). For SIY-pentamer staining, splenocytes were preincubated for 15 min with anti-CD16/32 monoclonal antibody (93) to block potential nonspecific binding, and labeled with PE-MHC class I pentamer (Proimmune) consisting of murine H-2K^b complexed to […] (SIY) peptide, anti-TCRβ-AF700 (H57-597), anti-CD8-Pacific Blue (53-6.7), anti-CD4-Pacific Orange (RM4-5) (all antibodies from BioLegend) and the Fixable Viability Dye eFluor 450 (eBioscience). Stained cells were analyzed using LSR II cytometer with FACSDiva software (BD). Data analysis was conducted with FlowJo software (Tree Star).

B16.F10 tumors = test: Intratumoral treatment of established B16.F10 tumors; type: in vivo, mouse; conditions: C57BL/6 mice, single IT dose of 500 μg DMXAA
Protocol: as §1

TRAMP-C2 tumors = test: Intratumoral treatment of TRAMP-C2 tumors; type: in vivo, mouse; conditions: C57BL/6 mice, single IT dose of 500 μg DMXAA
Protocol: as §1

4T-1 tumors = test: Intratumoral treatment of 4T-1 tumors; type: in vivo, mouse; conditions: BALB/c mice, single IT dose of 500 μg DMXAA
Protocol: as §1

Ag104L tumors = test: Intratumoral treatment of Ag104L tumors; type: in vivo, mouse; conditions: C3H mice, single IT dose of 500 μg DMXAA
Protocol: as §1

[3] = tested on: five hSTING alleles (WT, REF, HAQ, AQ and Q); test: IFN-β luciferase reporter assay in HEK 293T cells expressing hSTING variants; type: cell-based, human; conditions: 100 μg/ml DMXAA, 6 hours
Protocol: Luciferase Assay. […] After 20 min, stimulation mixtures were removed and normal media was added. After a total of 6 hours, cell lysates were prepared and reporter gene activity measured using the Dual Luciferase Assay System (Promega) on a Spectramax M3 luminometer.

tumors = conditions: background statement; cited from earlier work

## Cc1ccc2c(=O)c3cccc(CC(=O)O)c3oc2c1C [DMXAA, 5,6-dimethylXAA (xanthenone-4-acetic acid)]
IFN-β; BM-DC from WT versus STING^−/− mice, DMXAA
  IFN-β production: a high production of IFN-β
IFN-β; STING^−/− macrophages, DMXAA 50 μg/ml
  IFN-β production: only in WT macrophages; also recorded: not from STING^−/− macrophages
IFN-β; WT macrophages, DMXAA 50 μg/ml
  IFN-β production: high production of IFN-β; also recorded: IFN-β secretion was detected
[1]; STING^−/− BM-DCs
  expression of innate cytokines: not STING^−/− BM-DCs
[1]; WT BM-DCs
  expression of innate cytokines: upregulated other cytokines such as TNFα, IL6, IL1, IL10, and IL12 in a STING dependent manner; also recorded: IFN-β, TNF-α, IL-1β, IL-6 and IL12p35 were induced
[2]
  induction of co-stimulatory molecules (CD40, CD86, MHC class II): upregulated activation markers such as CD40 and C86 in a STING dependent manner; also recorded: observed only in WT cells
B16.SIY tumors; WT B6 mice, tumors 100-200 mm3, single intratumoral dose
  mice that reject the tumors: 80-90%
B16.SIY tumors; WT mice, single IT dose of 500 μg at day 7
  tumor regression and rejection: potent tumor regression in all animals and complete tumor rejection in the majority of mice
B16.SIY tumors; tumors in both flanks, only one treated IT
  regression of injected and non-injected secondary tumor: Tumor regression was observed in both sites
SIY antigen; STING^−/− mice
  frequencies of SIY-specific T cells: markedly reduced
SIY antigen; WT mice, spleens (b243 also tumors), after IT DMXAA
  SIY-specific CD8+ T cells by SIY pentamer staining: higher amount of CD8+ SIY specific T cells; also recorded: high frequency of SIY-specific CD8^+ T cells
SIY antigen; one week after injection
  endogenous T cell response against SIY (ELISPOT and CD8 SIY positive cells in spleen and tumors): highly increased
SIY antigen; one week after injection, versus saline
  increase in number of specific T cells producing IFN-g upon stimulation with SIY (ELISPOT): 10 fold
SIY antigen; splenocytes 5 days after treatment, 500 μg IT, WT mice
  frequency of SIY-specific IFN-γ-producing T cells (ELISPOT): marked increase
B16.F10 tumors
  tumor growth: significantly reduced the growth
TRAMP-C2 tumors
  tumor growth: significantly reduced the growth
4T-1 tumors
  tumor growth: significantly reduced the growth
Ag104L tumors
  tumor growth: significantly reduced the growth
[3]
  IFN-β reporter activation: failed to activate
tumors
  outcome of clinical trials for the treatment of tumors: all failed
